Assays:
Format in all cases: in vivo, human
serum IGF-1 = assay: Serum IGF-1 suppression in healthy volunteers
Protocol: For assessment of serum IGF-1, in the single-dose cohorts, serum IGF-1 was collected on Day - 1 and Day 1 (pre-dose to 18 h post-dose), and Day 2 and 7 (at approximately the same time GHRH was administered on Day 1). In the M1 cohort, IGF-1 samples were obtained pre-dose, 6 and 12 h post-dose on Days - 1, 1 and 7; pre-dose and 12 h post-dose on Days 2–6; and at approximately the same time as dosing on Days 8, 10, and 14. For M2 and subsequent cohorts, IGF-1 samples were obtained pre-dose, 6 and 12 h post-dose on Days - 1, 1 and 10; pre-dose and 12 h post-dose on Days 2–9; and at approximately the same time as dosing on Days 11, 14, and 21.
Serum was isolated, stored, and analyzed for IGF-1 and GH according to the instructions from the manufacturer (IGF-1 and human GH diagnostic assay, Siemens Immulite® 1000 systems).
The study endpoints were effects of paltusotine on GHRH-stimulated GH and IGF-1 (pharmacodynamics), pharmacokinetics (including formulation and food effects), safety, and tolerability. For the analysis of effects paltusotine on GHRH-stimulated GH and IGF-1, the pharmacodynamic population included all randomized participants in the 1.25 mg, 2.5 mg, 5 mg, 10 mg, and 20 mg (S1, S2, S3, S4A, and S5) single-dose cohorts who received any amount of study drug and had at least one post-baseline pharmacodynamic assessment. The percent change in serum GH area under the curve (AUC) from 0 to 2 h (AUC0-2) from baseline was compared using ANOVA between each dosing cohort and all participants who received placebo. The single-dose pharmacodynamic population included 39 participants from the S1, S2, S3, S4, and S5 cohorts (paltusotine n = 29; placebo n = 10). […] For multiple-dose cohorts, only participants who received all doses were included. A change in IGF-1 levels 12 h post last dose from baseline (average of 3–4 measurements) were compared by ANOVA between each dosing cohort and all participants who received placebo. The multiple-dose pharmacodynamic population included 31 participants from the M1, M2, M3, and M4 cohorts (paltusotine n = 21; placebo n = 10).

[1] = Safety and tolerability, single-dose cohorts
Protocol: Adverse events and concomitant medications were recorded. Laboratory samples for clinical chemistry, hematology, coagulation tests, and urinalysis were collected under fasted conditions. Participants who discontinued prematurely attended an early termination visit.
For the safety analysis, adverse events were coded using the Medical Dictionary for Regulatory Activities (MedDRA® Version 20.0). Adverse events were grouped by preferred terms. Treatment-emergent adverse events (TEAEs) were summarized with descriptive statistics.

[2] = Safety and tolerability, multiple-dose cohorts
Protocol: Safety assessments included monitoring of clinical laboratory tests, cardiovascular safety monitoring (continuous Holter monitoring, ECG, telemetry), and physical examinations conducted at scheduled times throughout the study in the research units as well as post-discharge (up to 9 days after the single-dose, or up to 11 days after the last dose for multiple-dose cohorts). Adverse events and concomitant medications were recorded. Laboratory samples for clinical chemistry, hematology, coagulation tests, and urinalysis were collected under fasted conditions. Participants who discontinued prematurely attended an early termination visit. In the multiple-dose cohorts, baseline serum TSH, ACTH, and prolactin samples were collected on Day -2, and an oral glucose tolerance test (OGTT) was conducted on Day -7 or earlier. These assessments were repeated on Day 8 (M1) or Day 11 (M2 and subsequent cohorts). A safety review committee oversaw the study and made decisions to escalate, expand or decrease the dose for the cohorts based on a review of demographics, pharmacokinetics, pharmacodynamics, and safety data in a blinded fashion. For the safety analysis, adverse events were coded using the Medical Dictionary for Regulatory Activities (MedDRA® Version 20.0). Adverse events were grouped by preferred terms. Treatment-emergent adverse events (TEAEs) were summarized with descriptive statistics.

[3] = single-dosing, safety population N = 41
[4] = multiple-dosing, safety population N = 24
[5] = multiple-dosing, safety population N = 24, listed as Paltusotine
[6] = one subject, cohort M3 20 mg, discontinued after Day 5

With `Cl.N#Cc1cccc(-c2ccc3ncc(-c4cc(F)cc(F)c4)c(N4CCC(N)CC4)c3c2)c1O` [paltusotine, 3-[4-(4-Aminopiperidin-1-yl)-3-(3,5-difluorophenyl)quinolin-6-yl]-2-hydroxybenzonitrile hydrochloride] the IGF-1 suppression (serum IGF-1; 5 mg once daily, Day 7, relative to baseline) was 19%, the “additional time IGF-1 remained suppressed after the final dose” value (serum IGF-1; 10 mg cohort, final dose on Day 10) was 4 days and the IGF-1 suppression (serum IGF-1; 10 mg once daily, Day 10, relative to baseline) was 37%. For the same molecule, the IGF-1 suppression (serum IGF-1; 20 mg once daily, Day 10, relative to baseline) was 37%, the IGF-1 suppression (serum IGF-1; 30 mg once daily, Day 10, relative to baseline) was 30% and the “maximal degree of IGF-1 suppression” value (serum IGF-1; multiple-dose cohorts) was “up to 37%”. The “time to near-maximum IGF-1 suppression” value (serum IGF-1; once-daily dosing (10 mg cohort illustrated)) was “approximately 7 days”, the “serum IGF-1 change after a single dose” value (serum IGF-1; single 1.25 to 20 mg dose, compared to Day -1 or placebo) was “little to no change” and the “life-threatening events or deaths” value ([1]; all cohorts) was “No life-threatening events or deaths occurred”. For the same molecule, the tolerability ([1]; single-dose administration) was “well tolerated”, the “share of TEAEs occurring at a dose level of 10 mg or higher” value ([1]; single-dose cohorts) was 64% and the “Abdominal distension (TEAE)” value [1, 3] was 2 (4.9%) n (%). The “Abdominal pain (TEAE)” value [1, 3] was 2 (4.9%) n (%), the “Abdominal pain upper (TEAE)” value [1, 3] was 2 (4.9%) n (%) and the “Back pain (TEAE)” value [1, 3] was 2 (4.9%) n (%). The “Fatigue (TEAE)” value [1, 3] was 2 (4.9%) n (%), the “Headache (TEAE)” value [1, 3] was 5 n (%) and the “Hypoesthesia (TEAE)” value [1, 3] was 2 (4.9%) n (%). The “Nausea (TEAE)” value [1, 3] was 2 (4.9%) n (%), the “Participants with at least 1 TEAE” value [1, 3] was 28 (68.3%) n (%) and the “Tension headache (TEAE)” value [1, 3] was 2 (4.9%) n (%). The “Ventricular tachycardia (non-sustained) (TEAE)” value [1, 3] was 2 (4.9%) n (%), the “Headache (TEAE)” value ([1]; single-dosing, safety population N = 41, listed as Paltusotine) was 5 (12.2%) n (%) and the “increase in glucose AUC0-3 upon 75 g oral glucose challenge compared to baseline” value ([2]; 30 mg multiple dose, 95% CI 1.8-4.6, placebo 1.5) was 3.2 mmol·h/L. For the same molecule, the “heart rate, ECG morphology, PR duration, QRS interval, QTcF interval” value ([2]; all cohorts) was “no clinically meaningful changes”, the fasting plasma glucose ([2]; multiple-dose cohorts) was “not significantly changed” and the “share of TEAEs occurring at a dose level of 10 mg or higher” value ([2]; multiple-dose cohorts) was 78%. For the same molecule, the “Abdominal pain (TEAE)” value [2, 4] was 4 n (%), the “Diarrhea (TEAE)” value [2, 4] was 4 n (%) and the “Headache (TEAE)” value [2, 4] was 3 n (%). For the same molecule, the “Hyperglycemia (TEAE)” value [2, 4] was 2 (8.3%) n (%), the “Lipase/pancreatic enzymes increased (TEAE)” value [2, 4] was 2 (8.3%) n (%) and the “Participants with at least 1 TEAE” value [2, 4] was 17 (70.8%) n (%). The “Upper respiratory tract infection (TEAE)” value [2, 4] was 2 (8.3%) n (%), the “Ventricular tachycardia (non-sustained) (TEAE)” value [2, 4] was 2 (8.3%) n (%) and the “Abdominal pain (TEAE)” value [2, 5] was 4 (16.7%) n (%). The “Diarrhea (TEAE)” value [2, 5] was 4 (16.7%) n (%), the “Headache (TEAE)” value [2, 5] was 3 (12.5%) n (%) and the amylase peak [2, 6] was 2 times the upper limit of normal. The lipase peak [2, 6] was 3.9 times the upper limit of normal, the lipase elevation ([2]; one subject, cohort M4 30 mg, 24 h after the tenth dose) was 1.7 times the upper limit of normal and the “TSH, ACTH, or prolactin levels” value ([2]; repeated administration) was “no consistent trends of clinical relevance”. For the same molecule, the tolerability ([2]; repeated daily capsules, 7 days (5 mg) and 10 days (10, 20, 30 mg)) was “well tolerated”.

From paper PMC8894159, “Paltusotine, a novel oral once-daily nonpeptide SST2 receptor agonist, suppresses GH and IGF-1 in healthy volunteers” (Pituitary, 2022)
